Test results reported in ChEMBL document CHEMBL3885881, “DrugMatrix”.

Species: Rattus norvegicus
Assay: DrugMatrix - Regimen: Daily Repeat
Type: toxicity, organism-based, Sprague-Dawley
Parameters: regimen Daily Repeat, gender Male, age 6-8 weeks
Conditions: in vivo, po, route oral GAVAGE, […]; for TOTAL PROTEIN / URIC ACID / ALANINE AMINOTRANSFERASE / ALBUMIN / ALKALINE PHOSPHATASE / ASPARTATE AMINOTRANSFERASE / BLOOD UREA NITROGEN / CARBON DIOXIDE / CHOLESTEROL / CREATINE PHOSPHOKINASE / CREATININE / GLUCOSE / LACTATE DEHYDROGENASE / LIPASE / TOTAL BILIRUBIN: tissue Plasma; for ABSOLUTE BASOPHIL / ABSOLUTE EOSINOPHIL / ABSOLUTE LYMPHOCYTE / ABSOLUTE MONOCYTE / ABSOLUTE SEGMENTED NEUTROPHIL / BASOPHIL / EOSINOPHIL / ERYTHROCYTE COUNT / HEMATOCRIT / HEMOGLOBIN / LEUKOCYTE COUNT / LYMPHOCYTE / MEAN CORPUSCULAR HEMOGLOBIN / MEAN CORPUSCULAR HEMOGLOBIN CONCENTRATION / MEAN CORPUSCULAR VOLUME / MONOCYTE / NEUTROPHIL / NUCLEATED RED BLOOD CELLS / PLATELET COUNT: tissue Blood
[1] = 32 mg/kg, 120 h, dose level M2, time 5 day
[2] = 64 mg/kg, 72 h, dose level High, time 3 day
[3] = 64 mg/kg, 120 h, dose level High, time 5 day

CC/C(=C(\c1ccccc1)c1ccc(OCCN(C)C)cc1)c1ccccc1 [TAMOXIFEN]
TOTAL PROTEIN [1]: 6.4 G/DL
URIC ACID [1]: 2.17 mg/dL
ABSOLUTE BASOPHIL [2]: 0 CELLS/uL
ABSOLUTE EOSINOPHIL [2]: 0 CELLS/uL
ABSOLUTE LYMPHOCYTE [2]: 5492.33 CELLS/uL
ABSOLUTE MONOCYTE [2]: 14 CELLS/uL
ABSOLUTE SEGMENTED NEUTROPHIL [2]: 260.33 CELLS/uL
BASOPHIL [2]: 0%
EOSINOPHIL [2]: 0%
ERYTHROCYTE COUNT [2]: 5.73 x10E6/uL
HEMATOCRIT [2]: 35.43%
HEMOGLOBIN [2]: 13.57 G/DL
LEUKOCYTE COUNT [2]: 5.77 x10E3/uL
LYMPHOCYTE [2]: 94.67%
MEAN CORPUSCULAR HEMOGLOBIN [2]: 23.73 pg
MEAN CORPUSCULAR HEMOGLOBIN CONCENTRATION [2]: 38.3 G/DL
MEAN CORPUSCULAR VOLUME [2]: 62.03 fL
MONOCYTE [2]: 0.33%
NEUTROPHIL [2]: 5%
NUCLEATED RED BLOOD CELLS [2]: 0 /100WBC
PLATELET COUNT [2]: 879.67 x10E3/uL
ALANINE AMINOTRANSFERASE [2]: 151 u/L
ALBUMIN [2]: 3.87 G/DL
ALKALINE PHOSPHATASE [2]: 492 u/L
ASPARTATE AMINOTRANSFERASE [2]: 96.67 u/L
BLOOD UREA NITROGEN [2]: 10 mg/dL
CARBON DIOXIDE [2]: 30.33 mmol/L
CHOLESTEROL [2]: 38.33 mg/dL
CREATINE PHOSPHOKINASE [2]: 356.33 u/L
CREATININE [2]: 0.11 mg/dL
GLUCOSE [2]: 148 mg/dL
LACTATE DEHYDROGENASE [2]: 98 u/L
LIPASE [2]: 10.67 u/L
TOTAL BILIRUBIN [2]: 0.1 mg/dL
TOTAL PROTEIN [2]: 5.77 G/DL
URIC ACID [2]: 0.43 mg/dL
ABSOLUTE BASOPHIL [3]: 0 CELLS/uL
ABSOLUTE EOSINOPHIL [3]: 0 CELLS/uL
ABSOLUTE LYMPHOCYTE [3]: 6999 CELLS/uL
ABSOLUTE MONOCYTE [3]: 72.33 CELLS/uL
ABSOLUTE SEGMENTED NEUTROPHIL [3]: 495.33 CELLS/uL
BASOPHIL [3]: 0%
EOSINOPHIL [3]: 0%
ERYTHROCYTE COUNT [3]: 6.14 x10E6/uL
HEMATOCRIT [3]: 38.5%
HEMOGLOBIN [3]: 14.9 G/DL
LEUKOCYTE COUNT [3]: 7.57 x10E3/uL
LYMPHOCYTE [3]: 92.33%
MEAN CORPUSCULAR HEMOGLOBIN [3]: 24.27 pg
MEAN CORPUSCULAR HEMOGLOBIN CONCENTRATION [3]: 38.7 G/DL
MEAN CORPUSCULAR VOLUME [3]: 62.63 fL
MONOCYTE [3]: 1%
NEUTROPHIL [3]: 6.67%
NUCLEATED RED BLOOD CELLS [3]: 0.33 /100WBC
PLATELET COUNT [3]: 1000.33 x10E3/uL
ALANINE AMINOTRANSFERASE [3]: 226.33 u/L
ALBUMIN [3]: 3.63 G/DL
ALKALINE PHOSPHATASE [3]: 346.67 u/L
ASPARTATE AMINOTRANSFERASE [3]: 140 u/L
BLOOD UREA NITROGEN [3]: 7.67 mg/dL
CARBON DIOXIDE [3]: 30 mmol/L
CHOLESTEROL [3]: 43.33 mg/dL
CREATINE PHOSPHOKINASE [3]: 593 u/L
CREATININE [3]: 0.12 mg/dL
GLUCOSE [3]: 136.33 mg/dL
LACTATE DEHYDROGENASE [3]: 145.33 u/L
LIPASE [3]: 10.33 u/L
TOTAL BILIRUBIN [3]: 0.1 mg/dL
TOTAL PROTEIN [3]: 5.3 G/DL
